# Active and inactive are the calls of the source. The rule behind the calls is not given here.
# Tests used:
# [1] = target: T1, Histone deacetylase 1 (Homo sapiens, UniProt Q13547); experiment: Inhibition of full-length recombinant human HDAC1 expressed in Baculovirus expression system using Ac-Leu-Gly-Lys(Ac)-AMC as substrate preincubated for 5 mins followed by substrate addition and further incubated for 30 mins by fluorescence based microtiter plate reader assay
# [2] = tested on: K562; experiment: Antiproliferative activity against human K562 cells assessed as cell growth inhibition incubated for 8 hrs by CCK8 assay; type: functional, cell-based; settings: K562, 8 h
# [3] = target: T2, DNA topoisomerase 1 (Homo sapiens) (UniProt P11387); experiment: Inhibition of recombinant Top1 (unknown origin) assessed as inhibition of relaxation of supercoiled pBR322 plasmid DNA at 50 uM incubated for 15 mins by ethidium bromide staining based agarose gel electrophoresis analysis
# T2 sequence (whole entry): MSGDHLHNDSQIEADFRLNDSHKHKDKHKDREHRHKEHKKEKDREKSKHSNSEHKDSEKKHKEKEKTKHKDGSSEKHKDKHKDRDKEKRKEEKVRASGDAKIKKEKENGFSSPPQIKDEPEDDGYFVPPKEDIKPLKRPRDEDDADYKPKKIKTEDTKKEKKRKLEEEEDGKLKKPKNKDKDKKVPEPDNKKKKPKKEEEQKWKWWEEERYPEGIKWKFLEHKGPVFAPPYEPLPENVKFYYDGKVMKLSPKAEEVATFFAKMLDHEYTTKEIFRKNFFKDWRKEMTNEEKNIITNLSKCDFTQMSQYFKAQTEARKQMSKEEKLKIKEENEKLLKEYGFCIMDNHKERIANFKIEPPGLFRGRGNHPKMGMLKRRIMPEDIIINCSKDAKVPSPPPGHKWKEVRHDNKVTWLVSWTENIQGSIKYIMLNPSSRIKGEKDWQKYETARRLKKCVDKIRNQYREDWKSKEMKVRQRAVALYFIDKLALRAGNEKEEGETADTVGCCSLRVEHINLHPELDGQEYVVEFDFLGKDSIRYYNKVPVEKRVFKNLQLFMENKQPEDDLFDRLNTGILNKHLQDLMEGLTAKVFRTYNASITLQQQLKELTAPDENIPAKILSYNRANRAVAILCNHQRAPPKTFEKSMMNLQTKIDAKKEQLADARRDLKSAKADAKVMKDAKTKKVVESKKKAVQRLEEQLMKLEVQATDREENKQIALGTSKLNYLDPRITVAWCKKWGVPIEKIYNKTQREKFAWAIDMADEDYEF
# [4] = target: T3, Histone deacetylase 2 (Homo sapiens, UniProt Q92769); experiment: Inhibition of recombinant full length C-terminal GST tagged human HDAC2 expressed in baculovirus infected Sf9 insect cells using Ac-Leu-Gly-Lys(Ac)-AMC as substrate preincubated for 5 mins followed by substrate addition and further incubated for 30 mins by fluorescence based microtiter plate reader assay
# T3 sequence (Q92769 whole entry): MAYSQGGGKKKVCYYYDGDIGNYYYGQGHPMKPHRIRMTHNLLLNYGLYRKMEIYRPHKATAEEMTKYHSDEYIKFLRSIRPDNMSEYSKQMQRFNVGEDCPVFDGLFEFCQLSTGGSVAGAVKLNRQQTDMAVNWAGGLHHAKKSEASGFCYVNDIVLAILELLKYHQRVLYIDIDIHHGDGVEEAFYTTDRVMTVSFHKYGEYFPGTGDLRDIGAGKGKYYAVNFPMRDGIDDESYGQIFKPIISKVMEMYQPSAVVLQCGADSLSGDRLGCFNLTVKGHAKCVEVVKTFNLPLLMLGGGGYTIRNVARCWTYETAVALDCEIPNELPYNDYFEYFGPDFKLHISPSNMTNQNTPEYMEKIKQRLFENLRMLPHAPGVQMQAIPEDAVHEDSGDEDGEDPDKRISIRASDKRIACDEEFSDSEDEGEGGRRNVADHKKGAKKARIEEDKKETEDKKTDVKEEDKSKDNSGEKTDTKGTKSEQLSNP
# [5] = target: Histone deacetylase 3 (Homo sapiens, UniProt O15379); experiment: Inhibition of recombinant His-tagged human HDAC3 expressed in baculovirus infected insect cells using Ac-Leu-Gly-Lys(Ac)-AMC as substrate preincubated for 5 mins followed by substrate addition and further incubated for 30 mins by fluorescence based microtiter plate reader assay
# Chain of Histone deacetylase 3 (O15379 whole entry): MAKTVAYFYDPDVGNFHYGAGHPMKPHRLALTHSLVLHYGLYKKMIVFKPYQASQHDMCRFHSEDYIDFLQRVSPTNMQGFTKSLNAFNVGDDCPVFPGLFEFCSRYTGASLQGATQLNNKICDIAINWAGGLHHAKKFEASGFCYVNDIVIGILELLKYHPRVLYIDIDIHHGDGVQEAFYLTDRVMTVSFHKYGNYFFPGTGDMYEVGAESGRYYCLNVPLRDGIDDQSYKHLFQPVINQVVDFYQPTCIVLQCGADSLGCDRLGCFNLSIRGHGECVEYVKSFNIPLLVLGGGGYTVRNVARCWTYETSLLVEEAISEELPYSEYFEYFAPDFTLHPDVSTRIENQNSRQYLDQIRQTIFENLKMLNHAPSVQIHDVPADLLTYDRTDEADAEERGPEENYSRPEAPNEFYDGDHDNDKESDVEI
# [6] = target: T4, Histone deacetylase 8 (Homo sapiens, UniProt Q9BY41); experiment: Inhibition of full-length recombinant C-terminal His-tagged human HDAC8 expressed in baculovirus infected Sf9 insect cells using Ac-Leu-Gly-Lys(Tfa)-AMC as substrate preincubated for 5 mins followed by substrate addition and further incubated for 30 mins by fluorescence based microtiter plate reader assay
# T4 sequence (Q9BY41 whole entry): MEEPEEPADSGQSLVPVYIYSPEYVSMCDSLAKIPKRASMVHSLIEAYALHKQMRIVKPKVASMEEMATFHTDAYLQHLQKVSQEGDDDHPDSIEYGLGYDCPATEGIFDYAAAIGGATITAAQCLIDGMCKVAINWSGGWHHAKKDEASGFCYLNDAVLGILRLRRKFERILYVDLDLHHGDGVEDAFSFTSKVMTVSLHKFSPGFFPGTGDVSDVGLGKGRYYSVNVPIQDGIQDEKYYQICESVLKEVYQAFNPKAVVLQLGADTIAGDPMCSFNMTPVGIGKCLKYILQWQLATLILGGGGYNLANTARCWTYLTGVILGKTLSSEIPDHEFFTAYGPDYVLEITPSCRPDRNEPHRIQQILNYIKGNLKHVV
# [7] = target: T1, Histone deacetylase 1; experiment: Inhibition of HDAC1 in HEL cells assessed as increase in acetyl-H3 levels at 20 to 100 nM incubated for 24 hrs by western blot analysis; type: cell-based; settings: dose 20-100 nM
# [8] = target: T3, Histone deacetylase 2; experiment: Inhibition of HDAC2 in HEL cells assessed as increase in acetyl-H4 levels at 20 to 100 nM incubated for 24 hrs by western blot analysis; type: cell-based; settings: dose 20-100 nM
# [9] = tested on: HEL; experiment: Induction of apoptosis in HEL cells assessed as apoptotic cells at 0.5 uM incubated for 48 hrs by annexin V-FITC/PI staining based flow cytometry (reference value: 4.23%); type: functional, Homo sapiens
# [10] = tested on: HEL; experiment: Induction of cell cycle arrest in HEL cells assessed as change in S-phase ratio at 0.02 uM incubated for 48 hrs by PI staining based flow cytometry relative to control; type: functional, Homo sapiens
# [11] = tested on: HEL; experiment: Induction of cell cycle arrest in HEL cells assessed as change in S-phase ratio at 0.5 uM incubated for 48 hrs by PI staining based flow cytometry relative to control; type: functional, Homo sapiens
# [12] = tested on: HEL; experiment: Antitumor activity against HEL cells xenografted in BALB/C mouse assessed as tumor growth inhibition at 5 mg/kg, po qd for 14 days consecutively by caliper method relative to control; type: functional, Homo sapiens; settings: 336 h, time 14 day, read-out: TGI
# [13] = tested on: HEL; experiment: Antitumor activity against HEL cells xenografted in BALB/C mouse assessed as T/C value at 5 mg/kg, po qd for 14 days consecutively by caliper method relative to control; type: functional, Homo sapiens; settings: time 14 day
# [14] = tested on: HEL; experiment: Antitumor activity against HEL cells xenografted in BALB/C mouse assessed as tumor growth inhibition at 10 mg/kg, po qd for 14 days consecutively by caliper method relative to control; type: functional, Homo sapiens; settings: 336 h, time 14 day, read-out: TGI
# [15] = Toxicity in BALB/C mouse xenografted with HEL cells assessed as change in body weight at 5 to 10 mg/kg, po qd for 14 days consecutively; type: organism-based; settings: in vivo, 336 h, dose 5-10 mg/kg, time 14 day
# [16] = Toxicity in BALB/C mouse xenografted with HEL cells assessed as animal death at 5 to 10 mg/kg, po qd for 14 days consecutively; type: organism-based; settings: in vivo, 336 h, dose 5-10 mg/kg, time 14 day
# [17] = target: T1, Histone deacetylase 1; experiment: In vivo inhibition of HDAC1 in HEL cells xenografted in BALB/C mouse assessed as upregulation of acetyl-H3 levels at 5 to 10 mg/kg by immunohistochemical staining method; type: functional, organism-based; settings: dose 5-10 mg/kg
# [18] = target: T3, Histone deacetylase 2; experiment: In vivo inhibition of HDAC2 in HEL cells xenografted in BALB/C mouse assessed as upregulation of acetyl-H4 levels at 5 to 10 mg/kg by immunohistochemical staining method; type: functional, organism-based; settings: dose 5-10 mg/kg
# [19] = target: Histone deacetylase (Homo sapiens) (UniProt Q13547+O15379+Q9UBN7+Q92769+Q9UQL6+Q8WUI4+Q9BY41+Q96DB2+P56524+Q9UKV0+Q969S8); experiment: In vivo inhibition of HDAC in HEL cells xenografted in BALB/C mouse assessed as upregulation of caspase-9 levels at 5 to 10 mg/kg by immunohistochemical staining method; type: functional, organism-based; settings: dose 5-10 mg/kg
# T1 sequence (Q13547 whole entry): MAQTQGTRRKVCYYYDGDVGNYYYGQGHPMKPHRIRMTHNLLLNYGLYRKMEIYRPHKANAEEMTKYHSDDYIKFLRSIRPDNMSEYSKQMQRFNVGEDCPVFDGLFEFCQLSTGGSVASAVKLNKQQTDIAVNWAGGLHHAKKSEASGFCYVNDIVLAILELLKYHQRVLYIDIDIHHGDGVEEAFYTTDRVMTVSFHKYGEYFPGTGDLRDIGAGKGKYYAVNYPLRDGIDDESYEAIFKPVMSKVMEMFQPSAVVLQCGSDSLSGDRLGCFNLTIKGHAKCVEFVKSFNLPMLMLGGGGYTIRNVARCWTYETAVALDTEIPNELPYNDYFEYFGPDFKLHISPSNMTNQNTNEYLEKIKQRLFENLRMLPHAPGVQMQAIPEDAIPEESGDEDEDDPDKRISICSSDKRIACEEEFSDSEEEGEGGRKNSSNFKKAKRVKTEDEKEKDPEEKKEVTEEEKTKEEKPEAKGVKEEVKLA
smiles,measurement,setting,value
CN1c2ccc(F)cc2C(=O)N2CCc3c([nH]c4ccc(OCc5ccc(/C=C/C(=O)NO)cc5)cc34)C21 (centres undefined),IC50,[1],36 nM
same,IC50,[2],350 nM
same,inhibition,[3],Active
same,IC50,[4],140 nM
same,IC50,[5],59 nM
same,IC50,[6],9800 nM
same,inhibition,[7],Active
same,inhibition,[8],Active
same,Activity,[9],76.45%
same,Activity,[10],9.8%
same,Activity,[11],25.8%
same,inhibition in vivo at 5 mg/kg,[12],41.4%
same,T/C,[13],54.3%
same,inhibition in vivo at 10 mg/kg,[14],68.5%
same,Activity,[15],Non-Toxic
same,Activity,[16],Non-Toxic
same,inhibition,[17],Active
same,inhibition,[18],Active
same,inhibition,[19],Active
